Nine molecules from patent US9957539B2, “Method for using hexenol glycosyl transferase” (SUNTORY HOLDINGS LIMITED, priority 2013, dated 2018) can be followed below.

One experiment deals with CsUGTC30. Kind of experiment: Specificity of CsUGTC30 for sugar acceptors (relative activity of transglucosylation). The class given is biochemical, Camellia sinensis. The note with it: UDP-glucose as donor; 30 minutes at 30° C.; activity on geraniol is set to 100% (FIG. 8). The source says: Standard enzyme reaction conditions are as follows.
Next, to clarify the substrate specificity of CsUGTC30, geraniol, linalool, eugenol, benzyl alcohol, 2-phenylethanol, quercetin and cyanidin were each used as a substrate to determine the relative activity of transglucosylation with the above enzyme and under the above enzyme reaction conditions.

Experiment [1] is described as follows: Hexenol glycosylation activity of recombinant UGT enzymes (enzyme reaction with UDP-glucose, LC-MS analysis of product). It counts as biochemical. The note with it: 2 mM UDP-glucose, […] sugar acceptor substrate, pH 7.5, 30° C. for 1 hour; product detected by LC-MS against reference standard. The procedure:
Standard enzyme reaction conditions are as follows. […] The enzyme reaction solution (5 μl) was analyzed by LC-MS under the following conditions. LC Conditions • Column: CAPCELL PAK C18-UG120 (2.0 mm I.D.×150 mm) • Mobile phase: A: […] (m/z 261, 297, 307) Since green leaf volatiles are found in a wide range of land plants, a search was conducted for UGTs causing glycosylation of green leaf volatiles derived from other plant lines on the basis of homology with the sequence of Camellia sinensis Cs_UGT_C30.

`C=CC(C)(O)CCC=C(C)C` (stereo not drawn) [linalool]: the “relative transglucosylation activity of CsUGTC30 on the substrate (sugar acceptor)” value (shortened to “relative transglucosylation activity”) with CsUGTC30 is given as “transglycosylation activity”.

With `CC(C)=CCC/C(C)=C/CO` [geraniol], in the experiment with CsUGTC30, the “relative transglucosylation activity” value is recorded as “highest activity”.

Take `OCCc1ccccc1` [2-phenylethanol]: the “relative transglucosylation activity” value in the experiment with CsUGTC30 is given as “transglycosylation activity”.

`CC/C=C\CCO` [hexenol, cis-3-hexen-1-ol]: the “relative transglucosylation activity” value with CsUGTC30 is reported as “at the same level”.

Take `O=c1c(O)c(-c2ccc(O)c(O)c2)oc2cc(O)cc(O)c12` [quercetin]: in the experiment with CsUGTC30, the “relative transglucosylation activity” value is given as “no transglycosylation activity”.

Turning to `C=CCc1ccc(O)c(OC)c1` [eugenol], the “relative transglucosylation activity” value in the experiment on CsUGTC30 is “second highest activity”.

As to `OCc1ccccc1` [benzyl alcohol], the “relative transglucosylation activity” value in the experiment on CsUGTC30 is recorded as “second highest activity”.

B1: Cs_UGT_C30: Camellia sinensis glycosyltransferase, amino acid sequence SEQ ID NO: 2, expressed His-tagged in E. coli (protein, listed as Camellia sinensis)
chain: MGSRKQPHAVCVPFPAQGHINPMMQLAKLLHSRGFYITFVNTEFNHRRLLQSKGPEFLKGCADFQFESIPDGLPPSDRDATQDPPTLCIAMRDNCLDPFRVLLKKLNNNNNSIASRQVPGVTCVVSDGAMNFAMKAAEEAGIPEVQFWTASACGFMGYLHYPQLVQRGIFPFKDESFQSDGSLDTTIDWIPGMRNIRLKDMPSFIRTTDPNDILFNYLSEEVQNCLKASAIIFNTFDTLEHQVLQAIASKFHNIYTIGPLSLLSKQVIDGEFKSLNSSLWKEDTKCLQWLDTKEPNSVVYVNYGSITVMTDQHLKEFAWGLANSKHPFLWIVRPDIVMGDSAILPEHFVEETKDRGLLVSWCPQEQVLSHPSIGVFLTHCGWNSTLESICGGVPIICWPFFAEQQTNCRYACTEWGIGMEVNHDVKRNEIVALINEMLEGDKGKQMRKKALKLKKEAEEATDVGGLSYNNFDRLIKEALHYCEQY
modifications: His tag
On to B1, for which, in experiment [1], the “glycosylation activity on cis-3-hexenol (generation of cis-3-hexenyl monoglucoside)” value is “glycosylation activity on cis-3-hexenol”.

B2: Cs_UGT85like_C1: Camellia sinensis glycosyltransferase, amino acid sequence SEQ ID NO: 4, expressed His-tagged in E. coli (protein, listed as Camellia sinensis)
chain: MAKLHFFFFPVMAQGHMIPTLDMAKLFASHGVKATIITTPLNAPYFTRSIQRTHHSISVLTLKFPAVEAGLVEGCESVDQIPSPDMLPNFLKATTMLQDPLERLLQDSRPDCLVADMFFPWATHVAAKFNIPRLVFHGTGFFTLCASENLRLYMPQASVSSDDEPFLVPNLPHKIMLTRSQLPENERCDTETGLSTMLKQVKETELTSYGVIVNSFYELEPDYADYYRNVLGRRAWHIGPVSLCNREVEDKAQRGKESAIDEVECLKWLNSKKPNSVIYVCFGSLGDFTASQLFELAMGLEASGQQFIWVVRKGKIEEDGDEKRLPEEFEERMKDKGLIIRGWAPQVLILDHESIGGFVTHCGWNSILEGVCAGVPMVTWPRFAEQFYNEKLVTEVLRIGVGVGARQWQIGAGSDCIKGETIAKAVKRVMEAGEEAEGMRTRARAAKDMAKKAVEEGGSSYSDLNALIQEMSS
modifications: His tag
As to B2, the “glycosylation activity on cis-3-hexenol (generation of cis-3-hexenyl monoglucoside)” value in experiment [1] is listed as “glycosylation activity on cis-3-hexenol”.
